For 8 molecules, EC50, Activity and ED50 results are on record in ChEMBL document CHEMBL1147400, “Novel antimitotic dibenzocyclo-octadiene lignan constituents of the stem bark of Steganotaenia araliacea” (1993).

Values after ≈ are worked out from the molar mass of the structure shown. Where only a bound is given, the exact number is not on record here.

In one experiment the test system is LNCaP. The experiment is described as follows: Cytotoxicity against human LNCAP cells. The conditions noted are these: read-out: ED50 (the source's name). The experiment is classed as functional.
The test system of another experiment is Lu1. The experiment is described as follows: Cytotoxicity against human Lu1 cells. The conditions noted are these: read-out: ED50 (the source's name). It counts as functional.
Experiment [1] is described as follows: Cytotoxicity against multidrug-resistant human KBV1 cells. It counts as functional. The conditions noted are these: KB-V1, read-out: ED50 (the source's name).
The test system of a further experiment is KB. The experiment can be described thus: Cytotoxicity against human KB cells. The experiment is classed as functional. The settings on record: read-out: ED50 (the source's name).
Another experiment relates to HT. The experiment can be described thus: Cytotoxicity against human HT cells. The settings on record: read-out: ED50 (the source's name). It counts as functional.
Experiment [2] in a line: Cytotoxicity against human BC1 cells. The experiment is classed as functional. The conditions noted are these: read-out: ED50 (the source's name).
The subject of the next experiment is A-431. The experiment can be described thus: Cytotoxicity against human A431 cells. The experiment is classed as functional. The conditions noted are these: read-out: ED50 (the source's name).
A short description of experiment [3]: Antimitotic activity against rat ASK cells assessed as reversal of astrocyte morphology at 0.032 ug/ml. It counts as functional.
Experiment [4] is described as follows: Antimitotic activity against rat ASK cells assessed as reversal of astrocyte morphology at 0.16 ug/ml. The experiment is classed as functional.
The nature of experiment [5]: Antimitotic activity against rat ASK cells assessed as reversal of astrocyte morphology at 0.8 ug/ml. The experiment is classed as functional.
Experiment [6] is described as follows: Antimitotic activity against rat ASK cells assessed as reversal of astrocyte morphology at 4 ug/ml. It counts as functional.
The nature of experiment [7]: Antimitotic activity against rat ASK cells assessed as reversal of astrocyte morphology at 20 ug/ml. The experiment is classed as functional.
Experiment [8] in a line: Antimitotic activity against rat ASK cells assessed as reversal of astrocyte morphology at 100 ug/ml. It counts as functional.
A further experiment has as its system Col2. The experiment can be described thus: Cytotoxicity against human Col2 cells. The experiment is classed as functional. The conditions noted are these: read-out: ED50 (the source's name).
Experiment [9] is described as follows: Antimitotic activity against rat ASK cells assessed as reversal of astrocyte morphology at 0.0064 ug/ml. It counts as functional.
A further experiment concerns SK-MEL-2. The experiment is described as follows: Cytotoxicity against human SK-MEL-2 cells. The settings on record: read-out: ED50 (the source's name). It counts as functional.
Experiment [10] can be described thus: Cytotoxicity against human U373 cells. It counts as functional, U-373MG ATCC. The conditions noted are these: U373 MG, read-out: ED50 (the source's name).
The next experiment has as its system ZR-75-1. The experiment is described as follows: Cytotoxicity against human ZR-75-1 cells. It counts as functional. The conditions noted are these: read-out: ED50 (the source's name).
The species entered for experiment [11] is Bos taurus. The experiment can be described thus: Inhibition of calf brain tubulin polymerization by turbidimetric analysis.
Experiment [12] is described as follows: Antimitotic activity against rat ASK cells assessed as reversal of astrocyte morphology at 0.00128 ug/ml. The experiment is classed as functional.
Experiment [13] is filed under the species Bos taurus. The experiment is described as follows: Inhibition of calf thymus tubulin polymerization by turbidimetric analysis.

For `COc1cc2c(c(OC)c1OC)-c1cc3c(cc1C(=O)[C@H]1COC(=O)[C@@H]1C2)OCO3`, the EC50 was 2 µg/mL (≈ 4.85 µM) in the experiment on LNCaP; 1 µg/mL (≈ 2.42 µM) with Lu1; 7.1 µg/mL (≈ 17.2 µM) in experiment [1]; 1.5 µg/mL (≈ 3.64 µM) in the experiment with KB; 0.7 µg/mL (≈ 1.7 µM) in the experiment with HT; 1.8 µg/mL (≈ 4.36 µM) in experiment [2]. Moreover, the EC50 is above 20 µg/mL in the experiment with A-431; 2.1 µg/mL (≈ 5.09 µM) with Col2; above 20 µg/mL with SK-MEL-2; above 20 µg/mL in [10]; above 20 µg/mL in the experiment on ZR-75-1. Further, the Activity in experiment [3] came to 0%; in experiment [4], 0%; in [5], 100%; in experiment [6], 100%; in experiment [7], 100%; in [8] it was 100%. Besides, the Activity in experiment [9] was found to be 0%. In the experiment filed under Bos taurus [11], this molecule came in with an ED50 of 68.2 µg/mL (≈ 165 µM).
Regarding `C/C=C(/C)C(=O)O[C@@H]1c2cc3c(cc2-c2c(cc(OC)c(OC)c2OC)C[C@H]2C(=O)OC[C@H]12)OCO3` [EPISTEGANANGIN], the EC50 with LNCaP is above 20 µg/mL; with Lu1 it was 6.9 µg/mL (≈ 13.9 µM); in experiment [1], 0.9 µg/mL (≈ 1.81 µM); in the experiment with KB it was 7.4 µg/mL (≈ 14.9 µM); in the experiment with HT it was 7.4 µg/mL (≈ 14.9 µM); in [2] it was 1.1 µg/mL (≈ 2.22 µM). Besides, the EC50 with A-431 was above 20 µg/mL; with Col2, above 20 µg/mL; with SK-MEL-2 it was 20 µg/mL (≈ 40.3 µM); in experiment [10], above 20 µg/mL; in the experiment on ZR-75-1, 13.9 µg/mL (≈ 28 µM). Also, the Activity stood at 0% in [5], 0% in experiment [6], 0% in experiment [7] and 100% in [8]. The ED50 in the experiment filed under Bos taurus [11] was found to be 78.1 µg/mL (≈ 157 µM).
As for `COc1cc2c(c(OC)c1OC)-c1ccc(OC)c(=O)cc1[C@@H](NC(C)=O)CC2` [COLCHICINE], the EC50 in the experiment on LNCaP was determined as 0.06 µg/mL (≈ 0.15 µM); in the experiment with Lu1, 0.02 µg/mL (≈ 0.0501 µM); in experiment [1] it was 3.5 µg/mL (≈ 8.76 µM); with KB, 0.02 µg/mL (≈ 0.0501 µM); in the experiment with HT it was 0.004 µg/mL (≈ 0.01 µM); in experiment [2] it was 0.008 µg/mL (≈ 0.02 µM). The EC50 with A-431 turned out to be 0.002 µg/mL (≈ 0.00501 µM); in the experiment on Col2, 0.001 µg/mL (≈ 0.0025 µM); with SK-MEL-2 it was 0.007 µg/mL (≈ 0.0175 µM); in experiment [10], 0.005 µg/mL (≈ 0.0125 µM); with ZR-75-1 it was 0.1 µg/mL (≈ 0.25 µM). Moreover, the Activity in experiment [12] was 0%; in experiment [3], 0%; in experiment [4] it was 0%; in experiment [5], 70%; in experiment [6] it was 100%; in [7], 100%. For the same molecule, the Activity in [8] is 100%; in [9], 0%. The ED50 in the experiment listed under Bos taurus [11] was 7.4 µg/mL (≈ 18.5 µM).
As for `COC[C@@H]1Cc2cc3c(cc2-c2c(c(OC)cc(OC)c2OC)C[C@H]1C(=O)OC)OCO3`, the EC50 is above 20 µg/mL in the experiment with LNCaP; 5.5 µg/mL (≈ 12.4 µM) in the experiment with Lu1; 0.8 µg/mL (≈ 1.8 µM) in experiment [1]; 9.2 µg/mL (≈ 20.7 µM) with KB; 11.5 µg/mL (≈ 25.9 µM) with HT; 17.3 µg/mL (≈ 38.9 µM) in experiment [2]. Moreover, the EC50 was 6.7 µg/mL (≈ 15.1 µM) with A-431; 9.6 µg/mL (≈ 21.6 µM) in the experiment on Col2; 14.9 µg/mL (≈ 33.5 µM) in the experiment on SK-MEL-2; 7.8 µg/mL (≈ 17.5 µM) in experiment [10]; 4.7 µg/mL (≈ 10.6 µM) in the experiment with ZR-75-1. This molecule also registered an ED50 in the experiment filed under Bos taurus [13] of 59.3 µg/mL (≈ 133 µM). For the same molecule, the Activity in experiment [6] amounted to 0%; in experiment [7], 100%; in [8], 100%.
In the case of `COc1cc2c(c(OC)c1OC)-c1cc3c(cc1[C@@H](OC(C)=O)C1COC(=O)[C@H]1C2)OCO3` (stereo not given in full) [STEGANACIN], the EC50 in the experiment on Lu1 was 0.4 µg/mL (≈ 0.876 µM); in [1], 0.2 µg/mL (≈ 0.438 µM); in the experiment on KB, 0.1 µg/mL (≈ 0.219 µM); in the experiment on HT, 0.7 µg/mL (≈ 1.53 µM); in experiment [2], 0.6 µg/mL (≈ 1.31 µM); with A-431, 0.2 µg/mL (≈ 0.438 µM). In addition, the EC50 with Col2 is 0.4 µg/mL (≈ 0.876 µM); with SK-MEL-2, above 20 µg/mL; in experiment [10] it was 0.1 µg/mL (≈ 0.219 µM); in the experiment on ZR-75-1, 5 µg/mL (≈ 11 µM). For the same molecule, the Activity result is “Dose-dependent effect” in the experiment filed under Bos taurus [13]; 0% in experiment [3]; 100% in experiment [4]; 100% in experiment [5]; 100% in experiment [6]; 100% in experiment [7]. In experiment [8], the Activity stood at 100%. This molecule returned an ED50 in the experiment listed under Bos taurus [11] of 1.7 µg/mL (≈ 3.72 µM).
On to `COc1cc2c(c(OC)c1OC)C[C@H]1COC(=O)[C@@H]1Cc1c-2cc(OC)c(OC)c1OC` [STEGANOLIDE A], for which the EC50 worked out at 9 µg/mL (≈ 20.2 µM) in the experiment on LNCaP; 5.5 µg/mL (≈ 12.4 µM) with Lu1; 0.8 µg/mL (≈ 1.8 µM) in [1]; 4.9 µg/mL (≈ 11 µM) in the experiment on KB; 6.5 µg/mL (≈ 14.6 µM) in the experiment with HT; 8 µg/mL (≈ 18 µM) in [2]. The EC50 with A-431 is 5.5 µg/mL (≈ 12.4 µM); in the experiment with Col2 it was 5.1 µg/mL (≈ 11.5 µM); in the experiment on SK-MEL-2 it was 9.2 µg/mL (≈ 20.7 µM); in experiment [10] it was 3.1 µg/mL (≈ 6.97 µM); with ZR-75-1 it was 8.9 µg/mL (≈ 20 µM). In addition, the Activity in experiment [3] stood at 0%; in experiment [4], 0%; in experiment [5] it was 0%; in experiment [6], 0%; in [7], 100%; in [8], 100%.
In the case of `C/C=C(/C)C(=O)O[C@H]1c2cc3c(cc2-c2c(cc(OC)c(OC)c2OC)C[C@H]2C(=O)OC[C@@H]21)OCO3` [STEGANANGIN], the EC50 in the experiment on LNCaP worked out at 0.9 µg/mL (≈ 1.81 µM); in the experiment with Lu1 it was 0.4 µg/mL (≈ 0.806 µM); in experiment [1], 0.7 µg/mL (≈ 1.41 µM); in the experiment with KB it was 0.4 µg/mL (≈ 0.806 µM); in the experiment on HT, 0.6 µg/mL (≈ 1.21 µM); in experiment [2], 0.7 µg/mL (≈ 1.41 µM). In addition, the EC50 in the experiment on A-431 was above 20 µg/mL; in the experiment on Col2, 0.6 µg/mL (≈ 1.21 µM); in the experiment on SK-MEL-2, 0.7 µg/mL (≈ 1.41 µM); in [10], above 20 µg/mL; in the experiment with ZR-75-1, 1 µg/mL (≈ 2.01 µM). In addition, the Activity in experiment [3] is on record as 0%; in [4], 50%; in experiment [5], 100%; in [6] it was 100%; in [7], 100%; in experiment [8] it was 100%. The Activity in experiment [9] is given as 0%. In the experiment listed under Bos taurus [11], this molecule had an ED50 of 38.1 µg/mL (≈ 76.7 µM).
For `COC[C@@H]1Cc2cc3c(cc2-c2c(ccc(OC)c2OC)C[C@@H]1C(=O)OC)OCO3`, the EC50 (in the experiment on LNCaP; in the experiment on Lu1; in [1]; in the experiment on KB; with HT; in experiment [2]) was above 20 µg/mL in each case. Moreover, the EC50 (in the experiment on A-431; with Col2; in the experiment with SK-MEL-2; in experiment [10]; in the experiment with ZR-75-1) was above 20 µg/mL each time. In the experiment filed under Bos taurus [13], this molecule registered an ED50 of 76.9 µg/mL (≈ 186 µM). The Activity was 0% in experiment [5], 0% in experiment [6], 0% in experiment [7] and 40% in [8].
